The subject of one test is DsRED gene expression. Kind of test: DsRED induction in transgenic tobacco leaf disks and T1 seedlings with Ethametsulfuron. The conditions noted are these: T1 seeds germinated on 1 ppm Ethametsulfuron, monitored thru four leaf stage. In kind it is in vivo, Nicotiana tabacum. An excerpt: A summary of the constructs shown in FIG. 4 is provided below in table 29. All vectors contain a right border (RB) proximal 35S::3xtetO-DsRED-UBQ3 inducible reporter cassette, a 35S::1xtetO-EsR(L13-32)-UBQ14 repressor cassette, and a SAMS-HRA-ALS left border (LB) proximal selectable marker. Inserted either upstream (pHD1194-1196) or downstream ([…]) of the repressor cassette are MMV::3xOp-siRNA^rep-Pin2 cassettes composed of an inverted repeat of the full length repressor coding region (no ATG-pHD1194 and 1197) or limited to the 5′ (pHD1195 & 1198) or 3′ (pHD1196 & 1199) halves of the SU repressor coding region linked by an intron spacer region. The MMV::tetO promoter was chosen so as not to cause silencing of the 35S::tetO promoter controlling target transgene expression. In this particular example the spacer region is the potato ST-LS1 gene intron IV2 (Construction of an intron-containing marker gene: splicing of the intron in transgenic plants and its use in monitoring early events in Agrobacterium-mediated plant transformation. Vancanneyt et al. (1990) Mol Gen Genet. 220(2):245-50). […] Nine fully derepressed DsRED positive seedings for each event were then transplanted into soil and their fluorescence phenotype monitored thru the four leaf developmental stage. […]

Another test relates to DS-RED expression. In words: DS-RED induction in soybean T0 leaf discs floated on ethametsulfuron. In kind it is in vivo. To be noted: soybean T0 leaf discs of experimental plants (pPHP46864, amiRNA) vs control pPHP46916; 0.05 ppm or 0.5 ppm, 3-4 days. An excerpt:
(§1) The first, a control construct, pPHP46916 (10,904 bp) (SEQ ID NO: 2111) contains the following cassettes: cassette A comprising a Glycine max s-adenosylmethionine promoter operably linked to the Glycine max acetolactate synthase gene with HrA mutations operably linked to a Glycine max acetolactate synthase terminator (this cassette serves as a selectable marker during plant transformation; position 81-4062); followed by cassette B comprising the T7 promoter operably linked to hygromycin phosphotransferase operably linked to a T7 terminator (which serves as a selectable marker in E. coli, positions 5448-6586); followed by cassette C comprising a cauliflower mosaic virus 35S promoter with three copies of the TET operator embedded operably linked to DS-RED Express that has the potato LS1 intron; operably linked to the cauliflower mosaic virus 35S terminator (position 6862-8455), followed by cassette D comprising the Glycine max elongation factor 1a2 promoter operably linked to the repressor protein ESR (L10-B7) operably linked to the nos terminator (position 8474-10893). The second, experimental construct, pPHP46864 (11,868 bp) (SEQ ID NO:2112) is exactly the same except embedded within the potato LS1 intron at the Mfe1 site is a 964 bp cassette containing the Glycine max microRNA precursor 159 containing a microRNA that targets the repressor protein. […]

Another test deals with DS-red signal. Kind of test: DS-red signal in soybean T1 plants from seed imbibed with chlorsulfuron. In kind it is in vivo. The conditions noted are these: T1 seed imbibed with 1 ppm, two weeks.
Source text: as §1

The structures appear in SMILES notation.

Turning to `CCOc1nc(NC)nc(NC(=O)NS(=O)(=O)c2ccccc2C(=O)OC)n1` [Ethametsulfuron, Ethametsulfuron-methyl], the DsRED expression signal result with DsRED gene expression (pHD1180 control tobacco events (no siRNA cassette)) is “modest and diminishes”. For the same compound, the DsRED intensity level entry in the test with DsRED gene expression (tobacco lines containing the MMV::tetO-siRNArep cassette (pHD1194-1199)) is “high and remains so with time”. In the test with DS-RED expression, the “pattern of DS-RED expression in inducible leaf discs” value was “smoother, more even pattern of expression”.
As for `COc1nc(C)nc(NC(=O)NS(=O)(=O)c2ccccc2Cl)n1` [chlorsulfuron], the DS-red signal entry is recorded as “no DS-red signal found in root, stem or cotyledon” in the test with DS-red signal (control soybean plants (pPHP46916)) and “weak DS-red signal” in the test with DS-red signal (experimental soybean plants (pPHP46864, amiRNA)).

(Values after US20160152995A1, “METHODS AND COMPOSITIONS TO IMPROVE THE SPREAD OF CHEMICAL SIGNALS IN PLANTS” (PIONEER HI-BRED INTERNATIONAL, INC., priority 2013, published 2016).)
